Experimental findings from patent US12472193B2, “Methods and compositions for treating and preventing respiratory related diseases and conditions with xylitol-headgroup lipid analogs” (National Jewish Health, priority 2017, dated 2025) are described below.

Like-named read-outs stand apart in the source and are kept apart here. Some results are limits rather than exact numbers.

Data set [1] can be described thus: Inflammatory burden caused by intranasal inoculation of 18:1 DEPX. In kind it is in vivo, mouse. As for the experimental part: Doses of 18:1 DEPX ranging from 35 μg to 1 mg were administered to mice by intranasal inoculation. The inflammatory burden caused by delivery of the synthetic lipid to the mouse lung was assessed 24 hours following inoculation. At 24 hours, mice were sacrificed and BALF was collected. The cells in BALF were quantified and cell populations within the lavage fluid were assessed by staining and cytospin analysis.
In order to determine the dose of 18:1 DEPX that is used in RSV challenge experiments, the toxic effects of the lipid were studied by the inflammatory response it elicits following delivery. A range of doses of 18:1 DEPX, from 35 μg to 1 mg, was instilled intranasally to 6-8 week old female BALB/C mice. Mice were sacrificed 24 hours following lipid delivery to best assess immediate inflammatory response. Mouse lungs were lavaged with 1 mL PBS and BALF was assessed for total inflammatory cellular infiltrates quantitatively and further characterized for cell populations by cytospin.
Following quantification of cells in 1 mL BALF, cells were subjected to cytospin and fixed and stained on microscope slides. 500 cells were counted from each slide and the numbers of macrophages, neutrophils and lymphocytes recorded. Delivery of 18:1 DEPX to mice elicits an inflammatory response determined by the influx of neutrophils found in lavage. […] Therefore, a dose of 100 μg 18:1 DEPX was chosen to perform RSV challenge experiments.

How the values of data set [2] were obtained:
18:1 DEPX was prepared as liposomes so that 500 μg of lipid was delivered in a 50 μL volume. 6-week old female BALB/C mice were purchased from Jackson laboratories and divided into groups of 5. Each group was inoculated with 500 μg of 18:1 DEPX by intranasal inoculation. Groups of 5 mice were sacrificed and lavaged at the following time points: 0 hours, 3 hours, 6 hours, 18 hours and 24 hours. Lipids were extracted from mice BALF by Bligh-Dyer (“A rapid method of total lipid extraction and purification.,” Can. J. Biochem. Physiol., vol. 37, no. 8, pp. 911-7, August 1959), and quantified by phosphorus analysis. 150 nmol of lipid extracted from each mouse was separated by lipid class utilizing the Touchstone solvent system (refer to methods) and thin layer chromatography. 0.1% ANSA and UV light was used to visualize lipids from the thin layer chromatogram. Individual xylitol lipid bands were cut out from the silica and quantified by phosphorus analysis.
To determine how quickly 18:1 DEPX turns over in the mouse lung, female BALB/C mice that were 6-8 weeks old were inoculated with 500 μg of lipid by intranasal delivery in a 50 μL volume. Mice were sacrificed at time periods of, 0 hours, 3 hours, 6 hours, 18 hours and 24 hours following lipid delivery and bronchoalveolar lavage fluid (BALF) was collected. Lipids were extracted from BALF by the Bligh-Dyer method and total lipid extracts were quantified by phosphorus analysis (G. Rouser, et al., “Quantitative analysis of phospholipids by thin-layer chromatography and phosphorus analysis of spots.,” Lipids, vol. 1, no. 1, pp. 85-6, January 1966). To separate the various lipid classes present in BALF, thin layer chromatography on a Merck Silica 60 glass plate with a touchstone solvent system was utilized. The silica plate was scored in lanes according to number of samples, 150 nmol of total lipid was spotted onto each lane and solvent was developed for 90 minutes. The plate was air dried and sprayed with 0.1% ANSA-water then exposed to UV light to reveal migration of lipids on the plate. The spots corresponding to xylitol lipids were cut out and quantified by phosphorous analysis.
Because toxicity of the synthetic phospholipid, 18:1 DEPX, is unknown lower levels of lipid were delivered to mice to determine if the diether lipid persists in the mouse lung after 24 hours. The previous experiment was repeated with 250 μg, 150 μg and 75 μg 18:1 DEPX delivered to mice. 250 μg was used as a starting point for mice sacrificed at 0 hours following lipid delivery. Subsequently groups of mice given 250 μg, 150 μg and 75 μg of 18:1 DEPX were sacrificed 24 hours following intranasal delivery of lipid. Mouse lungs were lavaged 2 times with 1 mL PBS. Total lipids were extracted by the Bligh-Dyer method from BALF and separated on a Merck Silica 60 glass plate using a touchstone solvent system for separation of lipids by headgroup. Xylitol lipid spots were excised from the silica and quantified by phosphorus assay.

On to `CCCCCCCCC=CCCCCCCCCOCC(COP(=O)(O)OCC(O)C(O)C(O)CO)OCCCCCCCCC=CCCCCCCCC` (mixture of isomers) [18:1 DEPX, sn-1-O-octadecenyl, sn-2-O-octadecenyl sn-3 glycerol phosphoxylitol], for which the “BALF cell counts compared to PBS control” value in data set [1] (35 μg, 75 μg, 150 μg and 250 μg intranasal, 24 hours) is recorded as “did not have cell counts distinguishable from the control”; in data set [1] (300 μg, 500 μg and 1 mg intranasal, 24 hours), “significantly higher cell counts”. Also, the “neutrophils in BALF (cytospin)” value in data set [1] (75 μg intranasal, 24 hours) is “significant numbers of neutrophils”. The mortality entry in data set [1] (1 mg intranasal) is reported as “One mouse in the group that received 1 mg of 18:1 DEPX died”. For the same compound, the “dose giving significant cellular infiltrates compared to control mice” value in data set [1] (intranasal, 24 hours) is ≥ 300 µg. For the same compound, the “doses accompanied with significant cellular infiltrates compared with PBS control” value in data set [1] (intranasal, 24 hours) is ≥ 300 µg. Further, the “xylitol lipid recovered from BALF” value in data set [2] (75 μg intranasal, 24 hours) was 10 µg; in data set [2] (150 μg intranasal, 24 hours), 15 µg; in data set [2] (250 μg intranasal, 0 hours), “Around 40 μg”; in data set [2] (250 μg intranasal, 24 hours), “around 20 μg”. The “18:1 DEPX detected in recovered lavage” value in data set [2] (500 μg intranasal, 24 hours) is on record as “about 20 nmol”. Besides, the “18:1 DEPX in 150 nmol of total BALF lipid loaded” value in data set [2] (500 μg intranasal, time zero) is reported as “approximately 42 nmol”. Moreover, the “half-life in the mouse lung” value in data set [2] (intranasal) is reported as “around 24 hours”. Moreover, in data set [2] (mice), the “starting material recovered after 24 hours” value turned out to be 50%.
